Measured values: publication PMC7615343, “Fluorination Influences the Bioisostery of Myo-Inositol Pyrophosphate Analogs” (Chemistry (Weinheim an der Bergstrasse, Germany), 2023)

Assay: Anion-exchange HPLC of [33P]-labeled products of PPIP5K2-mediated phosphorylation (relative polarity)
Assay type: physicochemical
Details: PartiSphere SAX column, NH4H2PO4 gradient pH 4.0; elution order 5PA-IP5 < 5PCF2Am-IP5 < 5PCP-IP5 < 5PCF2P-IP5 < 5PP-IP5
From the text: Lastly, we also developed a protocol by which we can infer the relative polarities of each of the analogs. […] As shown above, 5PA-IP5 and the other analogs each bind in potentially productive orientations in which the 1-phosphate is presented to the active site. Therefore, we attempted to radiolabel each of the analogs by incorporation of [33]Pi from [33]P-γ-ATP, with the objective of resolving each of the [33]P-labeled products by anion-exchange HPLC. We reasoned that this assay could provide an empirical comparison of the relative degree of acidity of each reaction product - and more instructively - the substrates themselves. It should be emphasized that this experiment cannot inform on the relative rates of phosphorylation, in large part because the experimental protocol (low mass levels of high-specific radioactivity of [33]P-γ-ATP) are not appropriate for biologically-relevant kinetic determinations.
Figure 6 HPLC analysis of the products of PPIP5K-mediated phosphorylation of 5PP-IP5 and the various analogs. […]
Kinase activity was studied at 37°C by incubating 700 ng PPIP5K2^1-366 separately with each individual 10 μM test compound and 50 μM ATP plus 60,000 CPM of [^33P-γ]ATP for 30 mins. Assays were quenched with 0.2 volumes of 2 M perchloric acid, neutralized, and [^33P]-labeled products were analyzed by ion-exchange HPLC, using a 4.6 × 125 mm, 5 μm PartiSphere SAX column. […]

Structure (SMILES): O=P(O)(O)O[C@H]1[C@@H](OP(=O)(O)O)[C@H](OP(=O)(O)O)[C@@H](OP(=O)(O)C(F)(F)P(=O)(O)O)[C@H](OP(=O)(O)O)[C@H]1OP(=O)(O)O [5PCF2P-IP5]
- Relative HPLC elution of phosphorylated product (protonation state / global polarity compared with 5PP-IP5): most closely resembles the natural molecule with regards to its protonation state
